# Read-outs that look alike come from different tables or passages of the source.
# Columns and labels:
# plasma proteins [1] = assay: Human plasma rapid equilibrium dialysis; assay type: in vitro ADME; conditions: pooled human plasma, 4 h of shaking, 10 µM, monitored drug alone
# plasma proteins [2] = conditions: cited from earlier work
# [3] = system: cryopreserved pooled human primary hepatocytes
# CYP2D6 = CYP2D6 (Homo sapiens, UniProt P10635); assay: CYP screening of gefitinib and erlotinib with human pooled supersomes; assay type: in vitro ADME; conditions: 10 µM
# CYP2D6, sequence (P10635 whole entry): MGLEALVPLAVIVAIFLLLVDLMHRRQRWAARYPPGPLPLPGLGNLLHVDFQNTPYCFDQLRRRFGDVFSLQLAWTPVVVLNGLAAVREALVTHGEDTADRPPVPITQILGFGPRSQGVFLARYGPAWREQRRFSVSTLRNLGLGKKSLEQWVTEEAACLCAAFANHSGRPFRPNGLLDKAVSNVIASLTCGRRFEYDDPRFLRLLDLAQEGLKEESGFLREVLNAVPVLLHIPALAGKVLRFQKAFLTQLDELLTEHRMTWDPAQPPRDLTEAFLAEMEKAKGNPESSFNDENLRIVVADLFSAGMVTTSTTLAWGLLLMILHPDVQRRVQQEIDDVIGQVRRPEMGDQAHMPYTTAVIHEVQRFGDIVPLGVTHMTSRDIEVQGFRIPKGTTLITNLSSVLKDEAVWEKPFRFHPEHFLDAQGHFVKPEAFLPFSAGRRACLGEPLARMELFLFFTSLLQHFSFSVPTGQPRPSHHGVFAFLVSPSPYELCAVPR
# CYP3A4 = CYP3A4 (Homo sapiens, UniProt P08684); conditions: supersomes, 10 µM, at 60 min
# CYP3A4, sequence (P08684 whole entry): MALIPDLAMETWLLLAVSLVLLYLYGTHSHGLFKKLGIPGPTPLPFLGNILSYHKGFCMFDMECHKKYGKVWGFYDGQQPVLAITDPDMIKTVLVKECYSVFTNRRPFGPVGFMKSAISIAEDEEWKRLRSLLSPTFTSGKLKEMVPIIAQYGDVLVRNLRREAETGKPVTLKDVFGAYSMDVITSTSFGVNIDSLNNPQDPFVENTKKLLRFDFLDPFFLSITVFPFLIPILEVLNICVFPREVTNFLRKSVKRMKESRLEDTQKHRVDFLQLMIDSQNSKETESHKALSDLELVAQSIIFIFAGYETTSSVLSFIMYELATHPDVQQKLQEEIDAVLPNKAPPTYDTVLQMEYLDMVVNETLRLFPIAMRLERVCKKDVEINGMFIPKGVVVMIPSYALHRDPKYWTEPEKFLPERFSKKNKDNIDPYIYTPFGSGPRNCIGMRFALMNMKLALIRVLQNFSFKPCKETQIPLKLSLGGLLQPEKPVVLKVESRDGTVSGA
# CYP1A2 = molecular target: T1, CYP1A2 (Homo sapiens, UniProt P05177); assay: CYP screening of gefitinib and erlotinib with human pooled supersomes; assay type: in vitro ADME; conditions: 10 µM, at 60 min
# T1 sequence (P05177 1-516): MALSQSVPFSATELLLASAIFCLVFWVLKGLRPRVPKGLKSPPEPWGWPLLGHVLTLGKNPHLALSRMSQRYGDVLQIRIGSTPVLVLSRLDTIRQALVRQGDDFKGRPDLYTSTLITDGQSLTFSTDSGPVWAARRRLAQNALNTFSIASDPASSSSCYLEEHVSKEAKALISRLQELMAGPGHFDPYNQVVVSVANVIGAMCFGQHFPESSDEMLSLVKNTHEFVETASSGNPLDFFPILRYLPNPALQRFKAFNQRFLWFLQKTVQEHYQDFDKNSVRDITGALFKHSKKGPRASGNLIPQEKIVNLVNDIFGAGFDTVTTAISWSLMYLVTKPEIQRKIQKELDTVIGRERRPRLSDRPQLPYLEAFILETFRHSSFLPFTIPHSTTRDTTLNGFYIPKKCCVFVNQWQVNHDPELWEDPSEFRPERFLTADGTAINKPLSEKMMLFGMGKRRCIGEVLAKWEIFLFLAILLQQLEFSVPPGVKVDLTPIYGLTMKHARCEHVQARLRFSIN
# [4] = 4 h, 10 µM each, monitored drug + Erl
# [5] = 4 h, 10 µM each, monitored drug + Gef
# [6] = 4 h incubation, 10 µM, monitored drug alone
# [7] = 4 h, 10 µM each, monitored drug + Flx
# [8] = 4 h, 10 µM each, monitored drug + Flx + Los
# [9] = 4 h, 10 µM each, monitored drug + Los
"RED Protein Binding, Binding (%) (plasma proteins [1])","Parent remain (%) [3, 4] [%]","Parent remain (%) ([3]; 4 h, 10 µM each, monitored drug + Erl + Los)","Parent remain (%) [3, 5] [%]","Parent remain (%) ([3]; 4 h, 10 µM each, monitored drug + Gef + Los)","Parent remain (%) [3, 6] [%]","Parent remain (%) [3, 7] [%]","Parent remain (%) [3, 8] [%]","Parent remain (%) [3, 9] [%]",drug remaining (CYP2D6; CYP2D6 supersomes),metabolism by CYP3A4 (CYP3A4),metabolism by CYP1A2 (CYP1A2),"metabolism by CYP2D6 (CYP2D6; supersomes, at 60 min)","Parent remain (%) ([3]; 4 h, 10 µM each, monitored drug + Erl + Flx)","Parent remain (%) ([3]; 4 h, 10 µM each, monitored drug + Gef + Flx)",Structure (SMILES),"plasma protein binding, % bound (plasma proteins [2]; literature value ref Van Harten 1993) [%]","plasma protein binding, % bound (plasma proteins [2]; literature value ref Li et al., 2006)","plasma protein binding, % bound (plasma proteins [2]; literature value ref Christiansen et al., 2009) [%]","plasma protein binding, % bound (plasma proteins [2]; literature value ref Sica et al., 2005)"
95 ± 1,102 ± 1,121 ± 3,87 ± 10,122 ± 16,75 ± 9,–,–,–,–,–,–,–,–,–,CNCCC(Oc1ccc(C(F)(F)F)cc1)c1ccccc1 (stereo not drawn) [Fluoxetine],95,–,–,–
> 95,–,–,–,–,65 ± 2,72 ± 10,96 ± 4,58 ± 3,less than 80%,–,–,–,–,–,COc1cc2ncnc(Nc3ccc(F)c(Cl)c3)c2cc1OCCCN1CCOCC1 [Gefitinib],–,~ 97%,–,–
96 ± 0,–,–,–,–,62 ± 13,75 ± 3,86 ± 9,63 ± 2,–,significantly metabolized,significantly metabolized,significantly metabolized,–,–,C#Cc1cccc(Nc2ncnc3cc(OCCOC)c(OCCOC)cc23)c1 [Erlotinib],–,–,95,–
> 95,89 ± 10,–,89 ± 4,–,77 ± 6,–,–,–,–,–,–,–,99 ± 4,112 ± 13,CCCCc1nc(Cl)c(CO)n1Cc1ccc(-c2ccccc2-c2nn[nH]n2)cc1 [Losartan],–,–,–,greater than 98%
